Measurements reported in patent US20240327387A1, “TRIAZINE DERIVATIVES FOR THE TREATMENT OF TUMOURS AND NEURODEGENERATIVE DISORDERS” (UNIVERSITA' DEGLI STUDI DI MILANO, priority 2021, published 2024).

What was measured:
PD-L1 [1] = target: T1, PD-L1 (Homo sapiens (Human), UniProt Q9NZQ7); assay: NMR binding assay (macromolecule-based 1D 1H NMR); details: PD-L1 10 μM, protein:ligand 1:1 and 1:10
Target sequence in this assay (Q9NZQ7 18-134): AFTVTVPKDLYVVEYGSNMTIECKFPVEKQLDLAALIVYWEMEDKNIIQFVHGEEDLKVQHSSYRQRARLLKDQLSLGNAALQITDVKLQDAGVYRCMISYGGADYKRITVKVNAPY

PD-L1 [2] = target: T1, PD-L1; assay: Differential scanning calorimetry (DSC) of PD-L1; format: binding; details: PD-L1 32 μM, ligand 32 μM
Target sequence in this assay (Q9NZQ7 18-134): as above

hPD1/hPD-L1 interaction = hPD1/hPD-L1 interaction (Homo sapiens (Human), UniProt Q9NZQ7); assay: HTRF assay of PD-1/PD-L1 interaction; format: binding
PD-L1 [3] = target: T1, PD-L1; details: PD-L1 versus PD-1
Target sequence in this assay (Q9NZQ7 19-290): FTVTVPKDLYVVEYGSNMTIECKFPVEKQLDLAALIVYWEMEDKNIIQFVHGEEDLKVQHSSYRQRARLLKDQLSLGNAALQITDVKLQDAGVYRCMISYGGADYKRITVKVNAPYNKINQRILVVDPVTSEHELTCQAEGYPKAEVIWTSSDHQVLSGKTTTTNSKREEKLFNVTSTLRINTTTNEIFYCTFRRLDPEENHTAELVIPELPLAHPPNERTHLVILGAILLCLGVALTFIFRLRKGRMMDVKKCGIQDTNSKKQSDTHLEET

hPD1/hPD-L1 interaction, sequence (Q9NZQ7 19-238): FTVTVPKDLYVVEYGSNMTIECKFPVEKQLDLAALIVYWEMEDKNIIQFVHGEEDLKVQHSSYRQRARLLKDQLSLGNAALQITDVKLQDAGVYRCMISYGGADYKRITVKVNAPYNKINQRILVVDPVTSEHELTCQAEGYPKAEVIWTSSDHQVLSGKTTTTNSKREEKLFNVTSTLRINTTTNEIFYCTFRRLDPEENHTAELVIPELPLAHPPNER

Row | IC50 (hPD1/hPD-L1 interaction; Table 2) [µM] | SMILES | also measured
1 |  | COc1nc(OCc2cccc(-c3ccccc3)c2C)ccc1CNCCNC(C)=O [BMS202] | formation of the ligand-PD-L1 complex (1D 1H NMR signal changes) (PD-L1 [1]): decrease in the intensity of the free protein signals; change in the Tm of the protein (ΔTm) (PD-L1 [2]): 6.5 °C; Tm of PD-L1 in the presence of ligand (PD-L1 [2]; no ligand Tm 46.5 (±0.5)): 53.0 (±0.5) ° C.
2 |  | CC(=O)NCCNc1ncnc(OCc2cccc(-c3ccccc3)c2C)n1 [Compound 4] | formation of the ligand-PD-L1 complex (1D 1H NMR signal changes) (PD-L1 [1]): formation of the compound 4-PD-L1 complex; IC50 (hPD1/hPD-L1 interaction; HTRF): 0.115 µM; IC50 (hPD1/hPD-L1 interaction; HTRF, Table 1): 0.115 ± 0.024 µM; specific binding (PD-L1 [3]): capable of specifically binding PD-L1 and not PD-1
3 | 0.692 | COC(=O)[C@H](CO)Nc1ncnc(OCc2cccc(-c3ccccc3)c2C)n1 [Compound 76] | 
4 | > 10 | Cc1c(COc2ncnc(N[C@@H](CO)C(=O)O)n2)cccc1-c1ccccc1 [Compound 77] | 
5 | > 10 | CC(=O)NCCNc1ncnc(NCc2cccc(-c3ccccc3)c2C)n1 [Compound 80] | 
6 | > 10 | Cc1c(CNc2ncnc(NCCNS(C)(=O)=O)n2)cccc1-c1ccccc1 [Compound 81] | 
7 | > 10 | COC(=O)[C@H](CO)Nc1ncnc(NCc2cccc(-c3ccccc3)c2C)n1 [Compound 82] | 
8 | > 10 | Cc1c(CNc2ncnc(N[C@@H](CO)C(=O)O)n2)cccc1-c1ccccc1 [Compound 83] | 
9 | > 10 | CC(=O)NCCNc1ncnc(NCc2cccc(-c3ccc4c(c3)OCCO4)c2C)n1 [Compound 84] | 
10 | > 10 | Cc1c(CNc2ncnc(NCCNS(C)(=O)=O)n2)cccc1-c1ccc2c(c1)OCCO2 [Compound 85] | 
